We go through 23 molecules from US20200297760A1, “COMPOSITIONS AND METHODS FOR REDUCING IMMUNE RESPONSES AGAINST CHIMERIC ANTIGEN RECEPTORS” (Juno Therapeutics, Inc., priority 2015, published 2020).

Assay in all cases: REVEAL Epitope Discovery System in vitro MHC-peptide binding assay
The target of test [1] is HLA-A*02:01 (Homo sapiens, UniProt P04439, D140Y/D185E/D98H/E176V/E277Q/G131W/G231S/I119V/I121R/I166T/I218V/L300P/L318F/N151K/N90K/P208A/P217A/Q86G/Q94H/R138H/R169H/T345S). The settings on record: binding normalized to positive control peptide set at 100%, greater than 50 considered good or high affinity binding. The protocol:
(§1) Actual binding affinities for certain HLA class I alleles (A*02:01, A*03:01, A*11:01, and B*08:01) were assessed in vitro for exemplary overlapping 9 amino acid peptide sequences within a portion of the 26 amino acid junction region spanning the CD28 and 4-1BB junction. Specifically, assessment was of a series of overlapping 9-mer peptides derived from the sequence […] (set forth in SEQ ID NO: 7), which contains a portion of the CD28 transmembrane domain and 4-1BB costimulatory domain spanning the junction between the domains (bond joining the two amino acids noted in underline). In addition, a series of overlapping 9-mer peptides of each of a number of different variants of this portion also were assessed, each variant containing a mutation or mutations in this region as described in Example 2.
(§2) The various 9-mer overlapping peptides were synthesized and their purity tested by MALDI-TOF Mass Spectrometry. The synthetic peptides were then incubated with recombinant MHC molecules to assess binding properties using the REVEAL Epitope Discovery System, which is a high-throughput binding assay that measures the degree to which each peptide is able to stabilize a ternary MHC-peptide complex (Prolmmune, Oxford, United Kingdom). Each peptide was separately tested for this ability with respect to each of the HLA class I alleles, normalized to the degree observed for a positive control (known T cell epitope for the relevant allele). The results are reported as a score, in which the binding was normalized to the positive control peptide set at 100%. In this analysis, a score of greater than 50 generally was considered to represent good or high affinity binding.

The target of test [2] is HLA-B*08:01 (Homo sapiens, UniProt P01889, A93T/A95T/D138N/E176V/E187T/K202T/Q94N/R180D/S35A/V36M/Y33D/Y91F). The settings on record: binding normalized to positive control peptide set at 100%, >50 considered good or high affinity binding. As for the experimental part: as §1, §2
Test [3] concerns the target HLA-A*11:01 (Homo sapiens, UniProt P04439, A114D/D185E/E176A/F33Y/L180Q/S129P/T187R). The settings on record: binding normalized to positive control peptide set at 100%, >50 considered good or high affinity binding. As for the experimental part:
as §1, §2

For test [4], the target named is HLA-A*03:01 (Homo sapiens, UniProt P04439). Particulars: REVEAL score, binding normalized to positive control peptide set at 100%; greater than 50 considered good or high affinity binding. The protocol: as §1, §2

No end group written: not given here.

Take `CC[C@H](C)[C@H](NC(=O)[C@H](Cc1ccccc1)NC(=O)[C@H](C)N)C(=O)N[C@H](C(=O)N[C@@H](Cc1ccccc1)C(=O)N[C@@H](Cc1c[nH]c2ccccc12)C(=O)N[C@H](C(=O)N[C@@H](CCCNC(=N)N)C(=O)N[C@@H](CCCNC(=N)N)C(=O)O)C(C)C)[C@@H](C)CC`: in test [1], the “A*02:01 In Vitro Score” value was determined as 1.40. Also, in test [2], the “B*08:01 In Vitro Score” value is recorded as 0.30. Further, the “A*11:01 In Vitro Score” value in test [3] is given as 1.50.
In the case of `CC(C)[C@H](NC(=O)[C@H](Cc1c[nH]c2ccccc12)NC(=O)[C@@H](N)Cc1ccccc1)C(=O)N[C@@H](C)C(=O)N[C@@H](CCCNC(=N)N)C(=O)NCC(=O)N[C@@H](CCCNC(=N)N)C(=O)N[C@@H](CCCCN)C(=O)N[C@@H](CCCCN)C(=O)O`, the “A*02:01 In Vitro Score” value in test [1] came out at 13.50. The “B*08:01 In Vitro Score” value in test [2] came to 0.00. Moreover, in test [4], the “A*03:01 In Vitro” value worked out at 5.00. Besides, the “A*11:01 In Vitro Score” value in test [3] came to 8.90.
For `CC(C)C[C@H](NC(=O)CNC(=O)[C@H](CCCNC(=N)N)NC(=O)[C@H](CCCCN)NC(=O)[C@@H](NC(=O)[C@H](Cc1c[nH]c2ccccc12)NC(=O)[C@@H](N)Cc1ccccc1)C(C)C)C(=O)N[C@@H](CCCCN)C(=O)N[C@@H](CCCCN)C(=O)O`, in that order: 9.40, 6.30, 2.70 and 25.30.
`CC(C)[C@H](NC(=O)[C@H](Cc1c[nH]c2ccccc12)NC(=O)[C@@H](N)Cc1ccccc1)C(=O)N[C@@H](CCCCN)C(=O)N[C@@H](CCCNC(=N)N)C(=O)NCC(=O)N[C@@H](CC(N)=O)C(=O)N[C@@H](CCCCN)C(=O)N[C@@H](CCCCN)C(=O)O`: in test [1], the “A*02:01 In Vitro Score” value amounted to 8.70. The “B*08:01 In Vitro Score” value in test [2] is reported as 0.10. For the same molecule, the “A*03:01 In Vitro” value in test [4] amounted to 3.60. For the same molecule, the “A*11:01 In Vitro Score” value in test [3] worked out at 7.30.
For `CC[C@H](C)[C@H](N)C(=O)N[C@@H](Cc1ccccc1)C(=O)N[C@@H](Cc1c[nH]c2ccccc12)C(=O)N[C@H](C(=O)N[C@@H](CCCCN)C(=O)N[C@@H](CCCNC(=N)N)C(=O)NCC(=O)N[C@@H](Cc1c[nH]cn1)C(=O)N[C@@H](CCCCN)C(=O)O)C(C)C` the same measures were 2.20, 3.20, 9.00 and 30.90.
In the case of `CC[C@H](C)[C@H](N)C(=O)N[C@@H](Cc1ccccc1)C(=O)N[C@@H](Cc1c[nH]c2ccccc12)C(=O)N[C@H](C(=O)N[C@@H](CCCCN)C(=O)N[C@@H](CCCNC(=N)N)C(=O)NCC(=O)N[C@@H](CC(N)=O)C(=O)N[C@@H](CCCCN)C(=O)O)C(C)C`, the “A*02:01 In Vitro Score” value in test [1] amounted to 3.50. Further, the “B*08:01 In Vitro Score” value in test [2] is 0.10. For the same molecule, in test [4], the “A*03:01 In Vitro” value is reported as 8.00. Also, in test [3], the “A*11:01 In Vitro Score” value is reported as 45.90.
Turning to `CC[C@H](C)[C@H](N)C(=O)N[C@H](C(=O)N[C@@H](Cc1ccccc1)C(=O)N[C@@H](Cc1c[nH]c2ccccc12)C(=O)N[C@H](C(=O)N[C@@H](C)C(=O)N[C@@H](CCCNC(=N)N)C(=O)NCC(=O)N[C@@H](CCCNC(=N)N)C(=O)O)C(C)C)[C@@H](C)CC`, the “A*02:01 In Vitro Score” value in test [1] turned out to be 9.60. Also, the “B*08:01 In Vitro Score” value in test [2] is listed as 0.30. The “A*03:01 In Vitro” value in test [4] is reported as 18.60. In test [3], the “A*11:01 In Vitro Score” value came to 70.60.
For `CC[C@H](C)[C@H](N)C(=O)N[C@H](C(=O)N[C@@H](Cc1ccccc1)C(=O)N[C@@H](Cc1c[nH]c2ccccc12)C(=O)N[C@H](C(=O)N[C@@H](CCCCN)C(=O)N[C@@H](CCCNC(=N)N)C(=O)NCC(=O)N[C@@H](CC(N)=O)C(=O)O)C(C)C)[C@@H](C)CC`, the “A*02:01 In Vitro Score” value in test [1] was determined as 9.30. Also, in test [2], the “B*08:01 In Vitro Score” value is given as 0.90. In addition, in test [4], the “A*03:01 In Vitro” value was 4.30. Further, the “A*11:01 In Vitro Score” value in test [3] turned out to be 42.10.
For `CC[C@H](C)[C@H](N)C(=O)N[C@H](C(=O)N[C@@H](Cc1ccccc1)C(=O)N[C@@H](Cc1c[nH]c2ccccc12)C(=O)N[C@H](C(=O)N[C@@H](CCCCN)C(=O)N[C@@H](CCCNC(=N)N)C(=O)NCC(=O)N[C@@H](CO)C(=O)O)C(C)C)[C@@H](C)CC` the same measures were 13.60, 0.40, 16.20 and 100.00.
Regarding `CC[C@H](C)[C@H](N)C(=O)N[C@H](C(=O)N[C@@H](Cc1ccccc1)C(=O)N[C@@H](Cc1c[nH]c2ccccc12)C(=O)N[C@H](C(=O)N[C@@H](CC(C)C)C(=O)N[C@@H](CCCNC(=N)N)C(=O)NCC(=O)N[C@@H](CCCNC(=N)N)C(=O)O)C(C)C)[C@@H](C)CC`, the “A*02:01 In Vitro Score” value in test [1] came out at 8.40. Besides, the “B*08:01 In Vitro Score” value in test [2] was found to be 0.40. For the same molecule, in test [4], the “A*03:01 In Vitro” value is listed as 2.80. In addition, the “A*11:01 In Vitro Score” value in test [3] was 35.20.
Consider `CC(C)C[C@H](NC(=O)[C@H](CCCCN)NC(=O)[C@H](CCCCN)NC(=O)[C@H](CCCNC(=N)N)NC(=O)CNC(=O)[C@H](CCCNC(=N)N)NC(=O)[C@H](C)NC(=O)[C@@H](NC(=O)[C@@H](N)Cc1c[nH]c2ccccc12)C(C)C)C(=O)O`, for which the “A*02:01 In Vitro Score” value in test [1] is given as 8.80. Also, in test [2], the “B*08:01 In Vitro Score” value was found to be 32.40. For the same molecule, in test [4], the “A*03:01 In Vitro” value is 1.30. For the same molecule, the “A*11:01 In Vitro Score” value in test [3] amounted to 13.80.
For `CC(C)[C@H](NC(=O)[C@@H](N)Cc1c[nH]c2ccccc12)C(=O)N[C@@H](CCC(N)=O)C(=O)N[C@@H](CCCNC(=N)N)C(=O)NCC(=O)N[C@@H](CC(N)=O)C(=O)N[C@@H](CCCCN)C(=O)N[C@@H](CCCCN)C(=O)N[C@@H](CO)C(=O)O`, in that order: 1.20, 0.00, 0.70 and 5.00.
For `CC(C)C[C@H](NC(=O)[C@H](CCCCN)NC(=O)[C@H](CCCCN)NC(=O)[C@H](CCCNC(=N)N)NC(=O)CNC(=O)[C@H](CCCNC(=N)N)NC(=O)[C@H](CCC(N)=O)NC(=O)[C@@H](NC(=O)[C@@H](N)Cc1c[nH]c2ccccc12)C(C)C)C(=O)O`, in that order: 8.10, 45.10, 4.90 and 12.80.
In the case of `CC(C)C[C@H](NC(=O)[C@H](CCCCN)NC(=O)[C@H](CCCCN)NC(=O)[C@H](CO)NC(=O)CNC(=O)[C@H](CCCNC(=N)N)NC(=O)[C@H](CCC(N)=O)NC(=O)[C@@H](NC(=O)[C@@H](N)Cc1c[nH]c2ccccc12)C(C)C)C(=O)O`, the “A*02:01 In Vitro Score” value in test [1] is given as 4.40. In addition, the “A*03:01 In Vitro” value in test [4] is given as 1.20. The “A*11:01 In Vitro Score” value in test [3] is 5.90.
In the case of AFIIFWVAR, the “A*02:01 In Vitro Score” value in test [1] was found to be 2.20. Also, in test [2], the “B*08:01 In Vitro Score” value was 0.20. Besides, in test [4], the “A*03:01 In Vitro” value is recorded as 0.50. Besides, in test [3], the “A*11:01 In Vitro Score” value was found to be 51.80.
For AFIIFWVHR the same measures were 0.30, 0.30, 0.30 and 34.90.
For AFIIFWVKR the same measures were 0.50, 1.90, 5.70 and 25.90.
For AFIIFWVLR the same measures were 5.70, 0.20, 0.30 and 17.20.
On to AFIIFWVQR, for which, in test [1], the “A*02:01 In Vitro Score” value is 0.40. The “B*08:01 In Vitro Score” value in test [2] is 0.00. In addition, the “A*03:01 In Vitro” value in test [4] was determined as 0.20. Also, the “A*11:01 In Vitro Score” value in test [3] was 15.00.
On to AFIIFWVSR, for which the “A*02:01 In Vitro Score” value in test [1] came out at 4.50. Further, the “B*08:01 In Vitro Score” value in test [2] turned out to be 0.30. Besides, the “A*03:01 In Vitro” value in test [4] came to 0.30. In addition, the “A*11:01 In Vitro Score” value in test [3] is on record as 54.00.
Take FIIFWVHRG: the “A*02:01 In Vitro Score” value in test [1] amounted to 37.30. Further, in test [2], the “B*08:01 In Vitro Score” value stood at 0.20. The “A*03:01 In Vitro” value in test [4] is listed as 0.00. In test [3], the “A*11:01 In Vitro Score” value is on record as 0.90.
For FIIFWVKRG the same measures were 10.10, 0.10, 1.40 and 0.40.
For FIIFWVLRG, in that order: 7.20, 0.20, 0.10 and 2.40.
